Test results as given in US10899756B2, “Phosphodiesterase inhibitors and uses thereof” (The Trustees of Columbia University in the City of New York, priority 2013, dated 2021).

Target: PDE5 (Homo sapiens (Human), UniProt O76074)
Assay: PDE5 Inhibition Assay (BPS PDE assay kit, fluorescence polarization)
Assay type: biochemical
Protocol: Materials and Methods: PDE5 inhibition was assayed at BPS Bioscience (San Diego, Calif.) using BPS PDE assay kits (BPS Catalog number 60300, enzyme lot 090810). Test compounds were supplied as liquid solutions of 10 mM concentration in DMSO. Sildenafil, used as a standard was dissolved in DMSO. Intermediate dilutions were 10% DMSO in PDE assay buffer and tests at ranges from 0.1 to 100 nM. 0.1 ng of enzyme was used per reaction, and the substrate was 100 nM FAM-cGMP.
Assay conditions: A series of dilutions of the test compounds were prepared with 10% DMSO in assay buffer and 5 μl of the dilution was added to a 50 μl reaction so that the final concentration of DMSO is 1% in all of reactions. The enzymatic reactions were conducted at room temperature for 60 minutes in a 50 μl mixture containing PDE assay buffer, 100 nM FAM-cAMP or 100 nM FAM-cGMP, a PDE enzyme, and the test compound. After the enzymatic reaction, 100 μl of a binding solution (1:100 dilution of the binding agent with the binding agent diluent) was added to each reaction and the reaction was performed at room temperature for 60 minutes. Fluorescence intensity was measured at an excitation of 485 nm and an emission of 528 nm using a Tecan Infinite M1000 microplate reader.
Data analysis: PDE activity assays were performed in duplicate at each concentration.
Fluorescence intensity is converted to fluorescence polarization using the Tecan Magellan6 software. The fluorescence polarization data were analyzed using the computer software, Graphpad Prism. The fluorescence polarization (FPt) in absence of the compound in each data set was defined as 100% activity. In the absence of PDE and the compound, the value of fluorescent polarization (FPb) in each data set was defined as 0% activity. The percent activity in the presence of the compound was calculated according to the following equation: % activity=(FP−FPb)/(FPt−FPb)×100%, where FP=the fluorescence polarization in the presence of the compound.
The values of % activity versus a series of compound concentrations were then plotted using non-linear regression analysis of Sigmoidal dose-response curve generated with the equation Y=B+(T−B)/1+10^((LogEC50−X)×Hill Slope), where Y=percent activity, B=minimum percent activity, T=maximum percent activity, X=logarithm of compound and Hill Slope=slope factor or Hill coefficient. The IC50 value was determined by the concentration causing a half-maximal percent activity.

Row | SMILES | IC50
1 | COc1ccc(CNc2c3c(nc4ccc(C#N)cc24)CCN(C)C3)cc1Cl [B, 10-[(3-chloro-4-methoxybenzyl)amino]-2-methyl-1,2,3,4-tetrahydrobenzo[b][1,6]naphthyridine-8-carbonitrile] | 1 nM
2 | CCN1CCc2nc3ccc(C#N)cc3c(NCc3ccc(OC)c(Cl)c3)c2C1 [C, 10-[(3-chloro-4-methoxybenzyl)amino]-2-ethyl-1,2,3,4-tetrahydrobenzo[b][1,6]naphthyridine-8-carbonitrile] | 0.2 nM
3 | COc1ccc(CNc2c3c(nc4ccccc24)CN(C(C)(C)C)C3=O)cc1Cl [Compound P, 2-(tert-butyl)-9-[(3-chloro-4-methoxybenzyl)amino]-2,3-dihydro-1H-pyrrolo[3,4-b]quinolin-1-one] | 333 nM
4 | CCN1Cc2nc3ccc(C#N)cc3c(NCc3ccc(OC)c(Cl)c3)c2C1=O [K, 9-[(3-chloro-4-methoxybenzyl)amino]-2-ethyl-1-oxo-2,3-dihydro-1H-pyrrolo[3,4-b]quinoline-7-carbonitrile] | 0.059 nM
5 | CCN1Cc2nc3ccc(OC)cc3c(NCc3ccc(OC)c(Cl)c3)c2C1=O [L, 9-((3-chloro-4-methoxybenzyl)amino)-2-ethyl-7-methoxy-2,3-dihydro-1H-pyrrolo[3,4-b]quinolin-1-one] | 3.8 nM
6 | CCN1Cc2nc3ccc(C(F)(F)F)cc3c(NCc3ccc(OC)c(Cl)c3)c2C1=O [M, 9-[(3-chloro-4-methoxybenzyl)amino]-2-ethyl-7-(trifluoromethyl)-2,3-dihydro-1H-pyrrolo[3,4-b]quinolin-1-one] | 0.29 nM
7 | CCN1Cc2nc3ccc(Cl)cc3c(NCc3ccc(OC)c(Cl)c3)c2C1=O [N, 7-chloro-9-[(3-chloro-4-methoxybenzyl)amino]-2-ethyl-2,3-dihydro-1H-pyrrolo[3,4-b]quinolin-1-one] | 1.7 nM
8 | CCN1Cc2nc3ccccc3c(NCc3ccc(OC)c(Cl)c3)c2C1=O [O, 9-[(3-chloro-4-methoxybenzyl)amino]-2-ethyl-2,3-dihydro-1H-pyrrolo[3,4-b]quinolin-1-one] | 64 nM
